Measured values: patent US8426429B2, “2-amino-quinazoline derivatives useful as inhibitors of β-secretase (BACE)” (Jansssen Pharmaceutica N.V., priority 2004, dated 2013)

Key:
Format in all cases: biochemical
[1] = biological target: T1, β-secretase (BACE) (Homo sapiens, UniProt P56817); experiment: BACE FS1 % Inhibition Assay; settings: read-out: % Inhibition (FS)
T1 construct: purchased Panvera
Procedure, shortened: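 Percent inhibition per compound concentration was referenced to vehicle-treated enzyme and no-enzyme wells. Enzyme at a 4 μg/mL working stock plus compound was mixed for 20 min at room temperature before the FS1 substrate (300 μg/mL working stock) was added for a 1 h room-temperature reaction.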

[2] = biological target: T1, β-secretase (BACE); experiment: BACE Assay-2 (FS1 substrate, IC50 and Ki); settings: procedure of Example 159, FS1 substrate
Description: (§1) The FS1-substrate stock solution was prepared in DMSO as a 10 mg/mL solution. The FS1-substrate working solution was prepared by diluting the 10 mg/mL stock solution with substrate assay buffer to a final concentration of […]. The β-secretase (BACE) working solution was prepared by diluting a 0.83 mg/mL BACE stock solution with enzyme assay buffer to a final concentration of 4 μg/mL.
Test compounds were dissolved in DMSO at 10 mM.
(§2) The procedure for this assay was as follows: 15 μL of BACE working solution was pipetted into each well of a 96-well plate. To each well was then pipetted 2 μL of test compound at the selected concentration. Test compound and BACE were then mixed with a pipettor and incubated for 20 min at room temperature. To each well was then added 10 μL of the FS1 substrate working solution.
(§3) The procedure for the positive control was as follows:15 μL of BACE working solution was pipetted into each well to be used as a positive control. To each well was then pipetted 2 μL of vehicle. Vehicle and BACE were then mixed with a pipettor and incubated for 20 min at room temperature. To each well was then added 10 μL of the FS1 substrate working solution.
For test compounds, measured at multiple concentrations, the measured T0 and T60 values were used to calculate an IC50 value using Graphpad Software (or PIR). For test compounds, Ki inhibition was determined as follows: For each compound concentration and positive control, rate of cleavage of substrate (Vi, where i=compound concentration in μM) was determined as Δ Fluorescence/Δ time (min). Cleavage rates (Vi) were plotted as a function of inhibitor concentration in μM [I]. The Ki was then determined by fitting the following equation to the graph of [I] vs Vi Y=aVmax/(50+24*(1+X/Ki)),

[3] = biological target: T1, β-secretase (BACE); experiment: BACE Assay-1 (MCA-substrate, IC50); settings: procedure of Example 158
Description: The following standards are reagents were used in this assay: Sodium Citrate trisodium salt dihydrate (Sigma), Citric Acid monohydrate (Merck), PEG8000 (Sigma), MCA-substrate (Bachem), β-secretase (BACE) (Panvera), 96-well plate zwart (Costar (Elscolab)), StatVal (Bachem).
The following standard assay buffer solution was prepared and used in this assay: 0.05 M, pH 5.0 mixture of sodium citrate trisodium salt dihydrate (9.56 g), citric acid monohydrate (3.68 g) and PEG8000 (0.50 g).
The MCA-substrate stock solution was prepared by mixing 10 mg MCA-substrate with 5 mL DMSO for a final solution concentration of 2.0 mg/mL. The substrate work solution was prepared by mixing 0.1 mL substrate in 1.90 mL assay buffer for a final concentration of 0.05 mM. The β-secretase (BACE) work solution was prepared by mixing 8 μL BACE in 2 mL assay buffer for a final concentration of 10 µg/mL.
The screen procedure for this assay was as follows. 60 μL of assay buffer was pippeted into each well of a 96-well plate. To each well was then pipetted 1 μL of test compound at the selected concentration. To each well was then added 20 μL of the β-secretase work solution and […] of the MCA-substrate stock solution.
The procedure for the blank was as follows. 80 μL of assay buffer was pipetted into each well to be used as a blank control. To each well was then added 1 μL of DMSO and 20 μL of MCA-substrate solution in each well.
The procedure for the positive control was as follows. 60 μL of assay buffer was pipetted into each well to be used as a positive control. To each well was then added 1 μL of DMSO, 20 μL of BACE work solution and 20 μL of MCA-substrate stock solution.
For test compounds, measured at multiple concentrations, the measured T0 and T60 values were used to calculate an IC50 value using Graphpad Software (or PIR).

[4] = biological target: T1, β-secretase (BACE); experiment: BACE % Inhibition Assay ((Aedens)-[…]-(Dabcyl K-amide) substrate); settings: % error ±10%
Description: as §1, with “substrate” for “FS1-substrate”
Test compounds were dissolved in DMSO to 10 mM.
as §2, with “The screening” for “The”, “the” for “the FS1”, “solution. The plates were then incubated for 1 hour at room temperature.” for “solution.”
The procedure for the blank was as follows. 15 μL of assay buffer was pipetted into each well to be used as a blank control. To each well was then added 2 μL of vehicle and 10 μL of substrate working solution. The plates were then incubated for 1 hour at room temperature.
as §3, with “follows: 15 μl” for “follows:15 μL”, “the” for “the FS1”, “solution. The plates were the incubated for 1 hour at room temperature.” for “solution.”
For test compounds, % inhibition was determined at each concentration as follows: […]

T1 sequence (P56817 46-501): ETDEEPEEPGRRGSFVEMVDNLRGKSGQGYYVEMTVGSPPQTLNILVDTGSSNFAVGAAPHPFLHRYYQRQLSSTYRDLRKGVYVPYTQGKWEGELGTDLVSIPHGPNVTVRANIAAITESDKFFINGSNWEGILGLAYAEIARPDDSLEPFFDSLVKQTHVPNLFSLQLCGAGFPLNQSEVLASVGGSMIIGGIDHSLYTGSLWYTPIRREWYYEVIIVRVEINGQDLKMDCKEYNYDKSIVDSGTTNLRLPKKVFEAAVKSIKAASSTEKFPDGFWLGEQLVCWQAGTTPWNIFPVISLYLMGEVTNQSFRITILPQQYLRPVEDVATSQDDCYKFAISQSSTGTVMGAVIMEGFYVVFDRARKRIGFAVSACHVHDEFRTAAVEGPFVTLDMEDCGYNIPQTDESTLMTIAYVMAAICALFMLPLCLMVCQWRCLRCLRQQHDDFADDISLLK

NC1=Nc2ccc(Oc3ccccc3)cc2CN1C(CNC(=O)C1CCCC1)C1CCCCC1 (stereo not shown) [Compound 295]
inhibition at 0.3 µM ([1]; 0.3 μM test compound): 79%
inhibition at 1 µM ([1]; 1 μM test compound): 106%
inhibition at 3 µM ([1]; 3 μM test compound): 116%
Ki [2]: 0.03 µM
IC50 [3]: 0.016 µM

COC(=O)[C@H]1CC[C@H](NC(=O)CC[C@@H](C2CCOCC2)N2Cc3cc(Oc4ccccc4)ccc3N=C2N)CC1 [Compound 747]
inhibition at 0.3 µM ([1]; 0.3 μM compound, FS1 substrate): 41%
inhibition at 1 µM ([1]; 1 μM compound, FS1 substrate): 74%
inhibition at 3 µM ([1]; 3 μM compound, FS1 substrate): 104%
Ki [2]: 0.088 µM

CCCN1Cc2cc(Oc3cccc(CNCCCc4ccccc4)c3)ccc2N=C1N [Compound 430]
IC50 [3]: 2.8 µM

NC1=Nc2ccc(Oc3ccccc3)cc2CN1C(CNC(=O)C1CCCCC1)c1ccccc1 (stereo not shown) [Compound 342]
% Inhibition ([4]; 0.3 μM compound): 50%
% Inhibition ([4]; 1 μM compound): 93%
% Inhibition ([4]; 3 μM compound): 119%

CCCN1Cc2cc(Oc3cccc(CN(C)Cc4c(C)cc(C)cc4C)c3)ccc2N=C1N [Compound 464]
IC50 [3]: 1.3 µM

NC1=Nc2ccc(Oc3ccccc3)cc2CN1Cc1cccc(CNC(=O)C23CC4CC(CC(C4)C2)C3)c1 [Compound 336]
% Inhibition ([4]; 0.3 μM compound): <30%
% Inhibition ([4]; 1 μM compound): <30%
% Inhibition ([4]; 3 μM compound): <30%

CN(C(=O)c1cccc(CN2Cc3cc(-c4ccccc4Oc4ccccc4)ccc3N=C2N)c1)C1CCCCC1 [Compound 326]
inhibition at 0.3 µM ([1]; 0.3 μM test compound): < 30%
inhibition at 1 µM ([1]; 1 μM test compound): 35%
inhibition at 3 µM ([1]; 3 μM test compound): 79%
Ki [2]: 0.42 µM

CCCCC(CC)C(=O)NCC(c1ccccc1)N1Cc2cc(Oc3ccccc3)ccc2N=C1N (stereo not shown) [Compound 341]
% Inhibition ([4]; 0.3 μM compound): <30%
% Inhibition ([4]; 1 μM compound): <30%
% Inhibition ([4]; 3 μM compound): 72%

CSc1ccccc1-c1ccc2c(c1)CN(Cc1cccc(C(=O)N(C)C3CCCCC3)c1)C(N)=N2 [Compound 322]
inhibition at 0.3 µM ([1]; 0.3 μM test compound): < 30%
inhibition at 1 µM ([1]; 1 μM test compound): < 30%
inhibition at 3 µM ([1]; 3 μM test compound): 95%
Ki [2]: 0.29 µM
IC50 [3]: 0.14 µM

NC1=Nc2ccc(-c3ccccc3)cc2CN1CCNC(=O)Cc1ccccc1 [Compound 595]
inhibition at 0.3 µM ([1]; 0.3 μM test compound): 32%
inhibition at 1 µM ([1]; 1 μM test compound): 70%
inhibition at 3 µM ([1]; 3 μM test compound): 104%
Ki [2]: 0.33 µM

CCCN1Cc2cc(Oc3cccc(CNCc4cccc(O)c4)c3)ccc2N=C1N [Compound 305]
IC50 [3]: 1.4 µM

CN(C(=O)[C@@H]1CC[C@H](N2Cc3cc(Oc4ccccc4)ccc3N=C2N)C1)C1CCCCC1 [Compound 77]
% Inhibition ([4]; 3 μM compound): <30%
% Inhibition ([4]; 10 μM compound): <30%

CN(C(=O)[C@@H]1CCCN1C(=O)CN1Cc2cc(Oc3ccccc3)ccc2N=C1N)C1CCCCC1 [Compound 88]
% Inhibition ([4]; 3 μM compound): <30%
% Inhibition ([4]; 10 μM compound): <30%

CC(C)CCC(=O)NCC(C1CCCCC1)N1Cc2cc(Oc3ccccc3)ccc2N=C1N (stereo not shown) [Compound 388]
inhibition at 0.3 µM ([4]; 0.3 μM compound): 107%
inhibition at 1 µM ([4]; 1 μM compound): 119%
inhibition at 3 µM ([4]; 3 μM compound): 119%
Ki [2]: 0.063 µM

CCCN1Cc2cc(Oc3cccc(CNCc4ccccc4OC)c3)ccc2N=C1N [Compound 335]
IC50 [3]: 0.24 µM
